Tests used:
[1] = system: sheep body lice (Bovicola ovis), diazinon resistant; test: Off-shears/short wool lice efficacy study, single subcutaneous dose, Merino sheep; assay type: in vivo; details: for Sheep Body Lice Efficacy Based on Geometric Means Day 7: Day 7 post-treatment; for Sheep Body Lice Efficacy Based on Geometric Means Day 14: Day 14 post-treatment; for Sheep Body Lice Efficacy Based on Geometric Means Day 21: Day 21 post-treatment; for Sheep Body Lice Efficacy Based on Geometric Means Day 41/42: Day 41/42 post-treatment; for Sheep Body Lice Efficacy Based on Geometric Means Day 84: Day 84 post-treatment; for Sheep Body Lice Efficacy Based on Geometric Means Day 140: Day 140 post-treatment
Experimental: In this study the efficacy of fluralaner when administered once subcutaneously at doses of 1 and 2 mg/kg body weight within 1 week prior to shearing, within 24 hours after shearing and 6 weeks after shearing against sheep body lice (Bovicola ovis) infestation on Merino sheep was evaluated.
Fluralaner was administered to sheep in Groups 2 and 3 seven days pre-shearing, Groups 4 and 5 within 24 hours after shearing and Groups 6 and 7 forty-two days post-shearing at either 1 mg/kg (Group 2, 4 and 6) or 2 mg/kg (Group 3, 5 and 7). Group 1 was left untreated as a negative control. All sheep were shorn on Day 0.
Lice counts were conducted on all sheep on Day −8 to −7 for allocation. Pre-treatment lice counts were conducted on Groups 2 and 3 on Day −8 to −7 (i.e. allocation counts), on Group 4 and 5 on Day −1 (pre-shearing) and on Group 6 and 7 on Day 41 (post-shearing). Post-treatment lice counts were conducted 7, 14, 21, 42, 84 and 140 days±1-day post-treatment. Group 1 was counted on each day that a lice count was conducted on a treated group for comparison purposes. Lice counts were performed as described in Example 1.

[2] = system: sheep body lice (Bovicola ovis), diazinon resistant; test: Long wool lice efficacy study, single subcutaneous dose, Merino sheep with 3 months wool growth; assay type: in vivo
Experimental: In this study the efficacy of fluralaner when administered once subcutaneously at doses of 1 and 2 mg/kg body weight against sheep body lice (Bovicola ovis) infestation on Merino sheep with 3 months wool growth was evaluated.
Fluralaner was administered to sheep in Groups 2 and 3 on Day 0 at 1 and 2 mg fluralaner/kg bodyweight respectively. Group 1 was left untreated as a negative control.
Pre-treatment lice counts were conducted on Day −1 and used to allocate sheep to treatment groups. Post-treatment lice counts were conducted 7, 14, 21, 42, 84 and 140 days±1-day post-treatment. Lice counts were performed as discussed in Example 1.

[3] = system: biting/chewing lice (Bovicola bovis); test: Biting lice efficacy study in cattle, natural infestation, single subcutaneous injection; assay type: in vivo; details: 1 mg/kg s.c.
Experimental: This study determined the efficacy (via reductions in total lice counts) of fluralaner in an injectable suspension formulation against natural infestations of cattle sucking (Haematopinus eurysternus, Linognathus vituli) and biting/chewing lice (Bovicola bovis) when applied at a single dose to young, lice infested cattle. Treatment efficacy was determined by whole body lice counts post treatment and comparison of treated and untreated (placebo) group mean lice counts. The naturally acquired louse infestations consisted of 2 species of sucking lice (Haematopinus eurysternus and Linognathus vituli) and the biting louse Bovicola bovis. Each animal was examined in a cattle crush prior to being selected from the parent mob to ensure that more than 30 sucking lice (combined total of both sucking lice species) were present. Fluralaner at a dose level of 1.0 mg/kg bw and Control Product were administered to cattle by subcutaneous injection. The numbers of live adults and live nymphs for each species of lice on each animal were counted at 7-day intervals starting with pre-treatment counts on Day −1 and post-treatment on Days 7, 14, 21, 28, 35, 42, 49 and 56.

[4] = system: sheep body lice (Bovicola ovis); test: Persistency determination, lice challenge of treated lice free Merino sheep with 5 months wool growth; assay type: in vivo; details: 3.0 mg/kg s.c., Day 21-28 challenge, counts 7, 14, 21, 42 and 84 days post-challenge
Experimental: In this study the persistent efficacy of fluralaner when administered once subcutaneously at doses of 1.0, 2.0 and 3.0 mg/kg body weight against sheep body lice (Bovicola ovis) infestation on Merino sheep with 5 months wool growth was evaluated.
Fluralaner was administered to sheep in three groups each at 1.0, 2.0 and 3.0 mg fluralaner/kg bodyweight. The dose was administered subcutaneously. Three groups were left untreated as negative control groups.
From Day 21-28, 49-56 and Day 77-84 post-treatment one group of untreated negative control sheep and one group of sheep treated at 1.0, 2.0 and 3.0 mg/kg were challenged with lice by close confinement with lice infested sheep and manual transfer of lice. Following the challenges lice counts were conducted 7, 14, 21, 42 and 84 days±1-day post-challenge (not all counts conducted for all challenges).

[5] = system: sheep body lice (Bovicola ovis), benzoyl phenyl urea (IGR) resistant; test: Efficacy long wool lice study, single subcutaneous injection, Merino ewes with 7 months wool growth; details: for Geometric efficacy (%) Day 7 / Geometric efficacy (%) Day 14 / Geometric efficacy (%) Day 21 / Geometric efficacy (%) Day 42 / Geometric efficacy (%) Day 84 / Geometric efficacy (%) Day 140: long wool sheep, Henderson-Tilton
[6] = 1 mg/kg s.c., treated 7 days pre-shearing
[7] = 1 mg/kg s.c., treated 42 days post-shearing
[8] = 1 mg/kg s.c., treated within 24 hours after shearing
[9] = 2 mg/kg s.c., treated 7 days pre-shearing
[10] = 2 mg/kg s.c., treated 42 days post-shearing
[11] = 2 mg/kg s.c., treated within 24 hours after shearing

Cc1cc(C2=NOC(c3cc(Cl)cc(Cl)c3)(C(F)(F)F)C2)ccc1C(=O)NCC(=O)NCC(F)(F)F (stereo not drawn) [Fluralaner, 4-[5-(3,5-dichlorophenyl)-5-trifluoromethyl-4,5-dihydroisoxazol-3-yl]-2-methyl-N-[(2,2,2-trifluoro-ethylcarbamoyl)-methyl]-benzamide]
Sheep Body Lice Efficacy Based on Geometric Means Day 7 [1, 6]: 93.9%
Sheep Body Lice Efficacy Based on Geometric Means Day 14 [1, 6]: 97.7%
Sheep Body Lice Efficacy Based on Geometric Means Day 21 [1, 6]: 99.7%
Sheep Body Lice Efficacy Based on Geometric Means Day 41/42 [1, 6]: 100.0%
Sheep Body Lice Efficacy Based on Geometric Means Day 84 [1, 6]: 100.0%
Sheep Body Lice Efficacy Based on Geometric Means Day 140 [1, 6]: 100.0%
Sheep Body Lice Efficacy Based on Geometric Means Day 7 [1, 7]: 94.4%
Sheep Body Lice Efficacy Based on Geometric Means Day 14 [1, 7]: 99.5%
Sheep Body Lice Efficacy Based on Geometric Means Day 21 [1, 7]: 100.0%
Sheep Body Lice Efficacy Based on Geometric Means Day 41/42 [1, 7]: 100.0%
Sheep Body Lice Efficacy Based on Geometric Means Day 84 [1, 7]: 100.0%
Sheep Body Lice Efficacy Based on Geometric Means Day 140 [1, 7]: 100.0%
Sheep Body Lice Efficacy Based on Geometric Means Day 7 [1, 8]: 39.5%
Sheep Body Lice Efficacy Based on Geometric Means Day 14 [1, 8]: 83.1%
Sheep Body Lice Efficacy Based on Geometric Means Day 21 [1, 8]: 98.8%
Sheep Body Lice Efficacy Based on Geometric Means Day 41/42 [1, 8]: 99.9%
Sheep Body Lice Efficacy Based on Geometric Means Day 84 [1, 8]: 100.0%
Sheep Body Lice Efficacy Based on Geometric Means Day 140 [1, 8]: 100.0%
time until efficacy reached the required level (no lice detected) ([1]; 2.0 mg/kg dose rate, all wool lengths except off-shears): ≤ 14 days post-treatment
Sheep Body Lice Efficacy Based on Geometric Means Day 7 [1, 9]: 96.7%
Sheep Body Lice Efficacy Based on Geometric Means Day 14 [1, 9]: 100.0%
Sheep Body Lice Efficacy Based on Geometric Means Day 21 [1, 9]: 100.0%
Sheep Body Lice Efficacy Based on Geometric Means Day 41/42 [1, 9]: 100.0%
Sheep Body Lice Efficacy Based on Geometric Means Day 84 [1, 9]: 100.0%
Sheep Body Lice Efficacy Based on Geometric Means Day 140 [1, 9]: 100.0%
Sheep Body Lice Efficacy Based on Geometric Means Day 7 [1, 10]: 96.8%
Sheep Body Lice Efficacy Based on Geometric Means Day 14 [1, 10]: 100.0%
Sheep Body Lice Efficacy Based on Geometric Means Day 21 [1, 10]: 100.0%
Sheep Body Lice Efficacy Based on Geometric Means Day 41/42 [1, 10]: 100.0%
Sheep Body Lice Efficacy Based on Geometric Means Day 84 [1, 10]: 100.0%
Sheep Body Lice Efficacy Based on Geometric Means Day 140 [1, 10]: 100.0%
Sheep Body Lice Efficacy Based on Geometric Means Day 7 [1, 11]: 86.6%
Sheep Body Lice Efficacy Based on Geometric Means Day 14 [1, 11]: 97.1%
Sheep Body Lice Efficacy Based on Geometric Means Day 21 [1, 11]: 99.2%
Sheep Body Lice Efficacy Based on Geometric Means Day 41/42 [1, 11]: 99.4%
Sheep Body Lice Efficacy Based on Geometric Means Day 84 [1, 11]: 99.9%
Sheep Body Lice Efficacy Based on Geometric Means Day 140 [1, 11]: 100.0%
viable lice eggs ([1]; 1 and 2 mg/kg, all three treatment times, out to 140 days post-treatment): no viable lice eggs were detected
time until activity reached the required level ([2]; 1.0 mg/kg dose rate): ≤ 42 days post-treatment
Sheep Body Lice Efficacy Based on Geometric Means Day 7 ([2]; 1 mg/kg s.c.): 81.8%
Sheep Body Lice Efficacy Based on Geometric Means Day 14 ([2]; 1 mg/kg s.c.): 97.2%
Sheep Body Lice Efficacy Based on Geometric Means Day 21 ([2]; 1 mg/kg s.c.): 99.6%
Sheep Body Lice Efficacy Based on Geometric Means Day 42 ([2]; 1 mg/kg s.c.): 100.0%
Sheep Body Lice Efficacy Based on Geometric Means Day 84 ([2]; 1 mg/kg s.c.): 100.0%
Sheep Body Lice Efficacy Based on Geometric Means Day 140 ([2]; 1 mg/kg s.c.): 100.0%
time until efficacy reached the required level ([2]; 2.0 mg/kg dose rate): ≤ 14 days post-treatment
Sheep Body Lice Efficacy Based on Geometric Means Day 7 ([2]; 2 mg/kg s.c.): 95.2%
Sheep Body Lice Efficacy Based on Geometric Means Day 14 ([2]; 2 mg/kg s.c.): 100.0%
Sheep Body Lice Efficacy Based on Geometric Means Day 21 ([2]; 2 mg/kg s.c.): 100.0%
Sheep Body Lice Efficacy Based on Geometric Means Day 42 ([2]; 2 mg/kg s.c.): 100.0%
Sheep Body Lice Efficacy Based on Geometric Means Day 84 ([2]; 2 mg/kg s.c.): 100.0%
Sheep Body Lice Efficacy Based on Geometric Means Day 140 ([2]; 2 mg/kg s.c.): 100.0%
efficacy against the biting lice B. bovis ([3]; Day 7): 91.74%
efficacy against the biting lice B. bovis ([3]; by Day 14): 100%
lice found on treated cattle ([3]; from Day 21 until Day 56): no lice of any species found
lice or viable lice eggs found after challenge [4]: No lice or viable lice eggs were found
Geometric efficacy (%) Day 7 ([5]; 1.0 mg/kg s.c. once): 99.4%
Geometric efficacy (%) Day 14 ([5]; 1.0 mg/kg s.c. once): 99.9%
Geometric efficacy (%) Day 21 ([5]; 1.0 mg/kg s.c. once): 100.0%
Geometric efficacy (%) Day 42 ([5]; 1.0 mg/kg s.c. once): 100.0%
Geometric efficacy (%) Day 84 ([5]; 1.0 mg/kg s.c. once): 100.0%
Geometric efficacy (%) Day 140 ([5]; 1.0 mg/kg s.c. once): 100.0%
Geometric efficacy (%) Day 7 ([5]; 2.0 mg/kg s.c. once): 99.6%
Geometric efficacy (%) Day 14 ([5]; 2.0 mg/kg s.c. once): 100.0%
Geometric efficacy (%) Day 21 ([5]; 2.0 mg/kg s.c. once): 100.0%
Geometric efficacy (%) Day 42 ([5]; 2.0 mg/kg s.c. once): 100.0%
Geometric efficacy (%) Day 84 ([5]; 2.0 mg/kg s.c. once): 100.0%
Geometric efficacy (%) Day 140 ([5]; 2.0 mg/kg s.c. once): 100.0%
Geometric efficacy (%) Day 7 ([5]; 3.0 mg/kg s.c. once): 99.6%
Geometric efficacy (%) Day 14 ([5]; 3.0 mg/kg s.c. once): 100.0%
Geometric efficacy (%) Day 21 ([5]; 3.0 mg/kg s.c. once): 100.0%
Geometric efficacy (%) Day 42 ([5]; 3.0 mg/kg s.c. once): 100.0%
Geometric efficacy (%) Day 84 ([5]; 3.0 mg/kg s.c. once): 100.0%
Geometric efficacy (%) Day 140 ([5]; 3.0 mg/kg s.c. once): 100.0%
treatment related adverse events or health problems ([5]; sheep, 1, 2 and 3 mg/kg s.c., throughout the duration of the trial): No treatment related adverse events or health problems occurred
